Laboratory results from ChEMBL document CHEMBL1201862, “PubChem BioAssay data set” (2004).
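Where inhibition never reached the appropriate level, the endpoint shown equals the highest concentration tested. Otherwise, values were interpolated linearly from a five-concentration, 48-hour dose response in 96-well plates. Abbreviation: GI50, concentration required for 50% inhibition of growth.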 Activity calls are given as the source filed them. Cut-off read from the data, not from the text of the source: active = GI50 up to about 1.1 µM and inactive = higher.

What was measured:
Assay in all cases: NCI anticancer screen, dose series, 48 h
SK-MEL-2 = test system: SK-MEL-2
BT-549 = test system: BT-549
M14 = test system: M14
RPMI-8226 = test system: RPMI-8226
HCC 2998 = test system: HCC 2998
SNB-19 = test system: SNB-19
IGROV-1 = test system: IGROV-1
EKVX = test system: EKVX
SK-OV-3 = test system: SK-OV-3
HOP-92 = test system: HOP-92
HL-60 = test system: HL-60
A549 = test system: A549
MDA-MB-435 = test system: MDA-MB-435
OVCAR-4 = test system: OVCAR-4
NCI-H226 = test system: NCI-H226
SF-539 = test system: SF-539
MCF7 = test system: MCF7
NCI-H460 = test system: NCI-H460
SK-MEL-5 = test system: SK-MEL-5
UACC-62 = test system: UACC-62
OVCAR-5 = test system: OVCAR-5
K562 = test system: K562
NCI-H23 = test system: NCI-H23
PC-3 = test system: PC-3
U-251 = test system: U-251
HT-29 = test system: HT-29
UO-31 = test system: UO-31
SK-MEL-28 = test system: SK-MEL-28
HCT-15 = test system: HCT-15
UACC-257 = test system: UACC-257
OVCAR-3 = test system: OVCAR-3
RXF 393 = test system: RXF 393
SR = test system: SR
TK-10 = test system: TK-10
MOLT-4 = test system: MOLT-4
SW-620 = test system: SW-620
HOP-62 = test system: HOP-62
LOX IMVI = test system: LOX IMVI
T47D = test system: T47D
SF-295 = test system: SF-295
Hs-578T = test system: Hs-578T
CCRF-CEM = test system: CCRF-CEM
SF-268 = test system: SF-268
NCI/ADR-RES = test system: NCI/ADR-RES
ACHN = test system: ACHN
COLO 205 = test system: COLO 205
MDA-MB-231 = test system: MDA-MB-231
Malme-3M = test system: Malme-3M
A498 = test system: A498
CAKI-1 = test system: CAKI-1
MDA-N = test system: MDA-N
DU-145 = test system: DU-145
NCI-H522 = test system: NCI-H522
SNB-75 = test system: SNB-75
OVCAR-8 = test system: OVCAR-8
SN12C = test system: SN12C
KM12 = test system: KM12
HCT-116 = test system: HCT-116
786-0 = test system: 786-0

CSc1n[nH]c2c1c(C)nn2-c1ccccc1
GI50 (SK-MEL-2): > 100 µM (inactive) | GI50 (BT-549): > 100 µM (inactive) | GI50 (M14): > 100 µM (inactive) | GI50 (RPMI-8226): > 100 µM (inactive) | GI50 (HCC 2998): > 100 µM (inactive) | GI50 (SNB-19): > 100 µM (inactive) | GI50 (IGROV-1): > 100 µM (inactive) | GI50 (EKVX): > 100 µM (inactive) | GI50 (SK-OV-3): > 100 µM (inactive) | GI50 (HOP-92): > 100 µM (inactive) | GI50 (HL-60): 71.3 µM (inactive) | GI50 (A549): > 100 µM (inactive) | GI50 (MDA-MB-435): > 100 µM (inactive) | GI50 (OVCAR-4): > 100 µM (inactive) | GI50 (NCI-H226): > 100 µM (inactive) | GI50 (SF-539): > 100 µM (inactive) | GI50 (MCF7): > 100 µM (inactive) | GI50 (NCI-H460): > 100 µM (inactive) | GI50 (SK-MEL-5): > 100 µM (inactive) | GI50 (UACC-62): > 100 µM (inactive) | GI50 (OVCAR-5): > 100 µM (inactive) | GI50 (K562): > 100 µM (inactive) | GI50 (NCI-H23): > 100 µM (inactive) | GI50 (PC-3): > 100 µM (inactive) | GI50 (U-251): > 100 µM (inactive) | GI50 (HT-29): > 100 µM (inactive) | GI50 (UO-31): > 100 µM (inactive) | GI50 (SK-MEL-28): > 100 µM (inactive) | GI50 (HCT-15): > 100 µM | GI50 (UACC-257): > 100 µM (inactive) | GI50 (OVCAR-3): > 100 µM (inactive) | GI50 (RXF 393): > 100 µM (inactive) | GI50 (SR): > 100 µM (inactive) | GI50 (TK-10): > 100 µM (inactive) | GI50 (MOLT-4): > 100 µM (inactive) | GI50 (SW-620): > 100 µM (inactive)

COCCCNc1nc(N)c(C#N)c(C#N)c1C#N
GI50 (SK-MEL-2): > 10 µM (inactive) | GI50 (HOP-62): > 10 µM (inactive) | GI50 (LOX IMVI): > 10 µM (inactive) | GI50 (T47D): > 10 µM (inactive) | GI50 (M14): > 10 µM (inactive) | GI50 (RPMI-8226): > 10 µM (inactive) | GI50 (HCC 2998): > 10 µM (inactive) | GI50 (SF-295): > 10 µM (inactive) | GI50 (Hs-578T): > 10 µM (inactive) | GI50 (CCRF-CEM): 2.48 µM (inactive) | GI50 (SNB-19): > 10 µM (inactive) | GI50 (IGROV-1): > 10 µM (inactive) | GI50 (EKVX): > 10 µM (inactive) | GI50 (SF-268): > 10 µM (inactive) | GI50 (SK-OV-3): > 10 µM (inactive) | GI50 (NCI/ADR-RES): > 10 µM (inactive) | GI50 (ACHN): > 10 µM (inactive) | GI50 (COLO 205): > 10 µM (inactive) | GI50 (MDA-MB-231): > 10 µM (inactive) | GI50 (HL-60): 4.47 µM (inactive) | GI50 (A549): > 10 µM (inactive) | GI50 (Malme-3M): > 10 µM (inactive) | GI50 (A498): > 10 µM (inactive) | GI50 (MDA-MB-435): > 10 µM (inactive) | GI50 (CAKI-1): > 10 µM (inactive) | GI50 (OVCAR-4): > 10 µM (inactive) | GI50 (NCI-H226): > 10 µM (inactive) | GI50 (MDA-N): > 10 µM (inactive) | GI50 (SF-539): > 10 µM (inactive) | GI50 (MCF7): > 10 µM (inactive) | GI50 (NCI-H460): > 10 µM (inactive) | GI50 (SK-MEL-5): > 10 µM (inactive) | GI50 (UACC-62): > 10 µM (inactive) | GI50 (DU-145): > 10 µM (inactive) | GI50 (NCI-H522): > 10 µM (inactive) | GI50 (OVCAR-5): > 10 µM (inactive) | GI50 (K562): 2.72 µM (inactive) | GI50 (NCI-H23): > 10 µM (inactive) | GI50 (SNB-75): > 10 µM (inactive) | GI50 (PC-3): > 10 µM (inactive) | GI50 (U-251): > 10 µM (inactive) | GI50 (OVCAR-8): > 10 µM (inactive) | GI50 (HT-29): > 10 µM (inactive) | GI50 (UO-31): > 10 µM (inactive) | GI50 (SN12C): > 10 µM (inactive) | GI50 (SK-MEL-28): > 10 µM (inactive) | GI50 (HCT-15): > 10 µM | GI50 (OVCAR-3): > 10 µM (inactive) | GI50 (RXF 393): > 10 µM (inactive) | GI50 (SR): > 10 µM (inactive) | GI50 (KM12): > 10 µM (inactive) | GI50 (HCT-116): > 10 µM (inactive) | GI50 (TK-10): > 10 µM (inactive) | GI50 (MOLT-4): > 10 µM (inactive) | GI50 (SW-620): > 10 µM (inactive)

C[C@@H]1OCC(O)C([C@H]2OC(c3ccccc3)=N[C@H]2CO)O1 (some centres undefined)
GI50 (SK-MEL-2): > 100 µM (inactive) | GI50 (HOP-62): > 100 µM (inactive) | GI50 (LOX IMVI): > 100 µM (inactive) | GI50 (T47D): > 100 µM (inactive) | GI50 (M14): > 100 µM (inactive) | GI50 (RPMI-8226): > 100 µM (inactive) | GI50 (HCC 2998): > 100 µM (inactive) | GI50 (SF-295): > 100 µM (inactive) | GI50 (Hs-578T): > 100 µM (inactive) | GI50 (CCRF-CEM): > 100 µM (inactive) | GI50 (SNB-19): > 100 µM (inactive) | GI50 (IGROV-1): > 100 µM (inactive) | GI50 (EKVX): > 100 µM (inactive) | GI50 (SF-268): > 100 µM (inactive) | GI50 (SK-OV-3): > 100 µM (inactive) | GI50 (HOP-92): > 100 µM (inactive) | GI50 (NCI/ADR-RES): > 100 µM (inactive) | GI50 (ACHN): > 100 µM (inactive) | GI50 (COLO 205): > 100 µM (inactive) | GI50 (MDA-MB-231): > 100 µM (inactive) | GI50 (HL-60): > 100 µM (inactive) | GI50 (A549): > 100 µM (inactive) | GI50 (Malme-3M): > 100 µM (inactive) | GI50 (A498): > 100 µM (inactive) | GI50 (MDA-MB-435): > 100 µM (inactive) | GI50 (CAKI-1): > 100 µM (inactive) | GI50 (OVCAR-4): > 100 µM (inactive) | GI50 (NCI-H226): > 100 µM (inactive) | GI50 (MDA-N): > 100 µM (inactive) | GI50 (SF-539): > 100 µM (inactive) | GI50 (MCF7): > 100 µM (inactive) | GI50 (NCI-H460): > 100 µM (inactive) | GI50 (SK-MEL-5): > 100 µM (inactive) | GI50 (UACC-62): > 100 µM (inactive) | GI50 (DU-145): > 100 µM (inactive) | GI50 (NCI-H522): > 100 µM (inactive) | GI50 (OVCAR-5): > 100 µM (inactive) | GI50 (K562): > 100 µM (inactive) | GI50 (NCI-H23): > 100 µM (inactive) | GI50 (SNB-75): 72.1 µM (inactive) | GI50 (PC-3): > 100 µM (inactive) | GI50 (U-251): > 100 µM (inactive) | GI50 (OVCAR-8): > 100 µM (inactive) | GI50 (HT-29): > 100 µM (inactive) | GI50 (UO-31): > 100 µM (inactive) | GI50 (786-0): > 100 µM (inactive) | GI50 (SN12C): > 100 µM (inactive) | GI50 (SK-MEL-28): > 100 µM (inactive) | GI50 (HCT-15): > 100 µM | GI50 (UACC-257): > 100 µM (inactive) | GI50 (OVCAR-3): > 100 µM (inactive) | GI50 (RXF 393): > 100 µM (inactive) | GI50 (SR): > 100 µM (inactive) | GI50 (KM12): > 100 µM (inactive) | GI50 (HCT-116): > 100 µM (inactive) | GI50 (TK-10): > 100 µM (inactive) | GI50 (MOLT-4): > 100 µM (inactive) | GI50 (SW-620): > 100 µM (inactive)
